Data set [1] concerns the target T1, GPR54 (Homo sapiens (Human), UniProt Q969F8). The data set can be described thus: Flipr assay of GPR54 agonist activity (increase in intracellular Ca2+ ion concentration). Type of data set: cell-based. To be noted: for % Activity / activity at 0.01 µM: signal upon addition of 10 nM compound, based on signal of 1 μM kisspeptin-10 as 100%.
Protocol: The GPR54 agonist activity of the obtained compounds was evaluated by Flipr assay measuring increase in the intracellular Ca^2+ ion concentration caused by stimulation of receptor as a signal.
A short description of data set [2]: Half-life of the compound in the serum. To be noted: for t1/2: in the serum; for half-life: serum, t1/2, in the serum.
Protocol: (§2) In addition, the half-life (t1/2) of the compound in the serum was measured.
The target of the next data set is MMP2 (Homo sapiens (Human), UniProt P08253). Put plainly: Resistance to decomposition by matrix protease MMP2. Type of data set: in vitro ADME. To be noted: for retention after treatment with MMP2: 48 hr, in words. The text has this:
(§1) Furthermore, the resistance of the present invention to the decomposition by matrix protease (MMP) was examined. […] However, only about 50% of compound 1 was retained.

The target in a further data set is MMP9 (Homo sapiens (Human), UniProt P14780). The data set can be described thus: Resistance to decomposition by matrix protease MMP9. Type of data set: in vitro ADME. To be noted: for retention after treatment with MMP9: 72 hr, in words.
Source text: as §1

The conditions of data set [3]: serum.
Protocol: as §2
Data set [4] deals with T1, GPR54. The data set can be described thus: Binding inhibitory test using membrane fraction of human GPR54-expressing cell and [125I]-Metastin 40-54.
Protocol: A binding inhibitory test using membrane fraction of human GPR54-expressing cell and [^125I]-Metastin 40-54 was performed, and IC50 value was calculated (see non-patent document 2).

Like-named read-outs stand apart in the source and are kept apart here.

T1 sequence (Q969F8 whole entry): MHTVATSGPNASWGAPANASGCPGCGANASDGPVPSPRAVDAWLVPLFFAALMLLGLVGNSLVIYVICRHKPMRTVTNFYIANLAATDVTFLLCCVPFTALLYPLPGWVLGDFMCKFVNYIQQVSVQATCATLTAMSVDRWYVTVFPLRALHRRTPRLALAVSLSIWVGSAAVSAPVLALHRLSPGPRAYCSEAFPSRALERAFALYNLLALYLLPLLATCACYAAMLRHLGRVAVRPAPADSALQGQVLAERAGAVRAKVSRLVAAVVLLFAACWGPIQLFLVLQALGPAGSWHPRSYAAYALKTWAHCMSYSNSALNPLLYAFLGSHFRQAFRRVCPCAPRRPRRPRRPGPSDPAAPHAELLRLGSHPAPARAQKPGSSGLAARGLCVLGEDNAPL

As for `CC(C)CC(C[C@H](O)CNC(=O)[C@H](Cc1ccccc1)NC(=O)c1ccc(F)cc1)C(=O)N[C@@H](CCCNC(=N)N)C(=O)N[C@@H](Cc1c[nH]c2ccccc12)C(N)=O` (single isomer, unassigned) [Compound 25a], the “% Activity” value at GPR54 [1] worked out at 13.8%. The compound also had a t1/2 in data set [2] of 120 h.

On to `CC(C)CC(C[C@@H](O)CNC(=O)[C@H](Cc1ccccc1)NC(=O)c1ccc(F)cc1)C(=O)N[C@@H](CCCNC(=N)N)C(=O)N[C@@H](Cc1c[nH]c2ccccc12)C(N)=O` (single isomer, unassigned) [Compound 24a], for which the “% Activity” value at GPR54 [1] amounted to 0.6%. In data set [2], the t1/2 came out at 470 h.

For the compound `CC(C)CC(C[C@H](O)CNC(=O)[C@H](Cc1ccccc1)NC(=O)c1ccc(F)cc1)C(=O)N[C@@H](CCCNC(=N)N)C(=O)N[C@@H](Cc1c[nH]c2ccccc12)C(N)=O` (single isomer, unassigned) [Compound 25b], at GPR54 [1], the “% Activity” value turned out to be 95.6%. In data set [2], this compound displayed a t1/2 of 35 h. Further, the “retention after treatment with MMP2” value on MMP2 is “retained even after 48 hr with scarce decomposition”. Also, the “retention after treatment with MMP9” value on MMP9 is reported as “retained even after 72 hr with scarce decomposition”.

At GPR54 [1], `CC(C)C[C@H](NC(=O)CNC(=O)[C@H](Cc1ccccc1)NC(=O)c1ccc(F)cc1)C(=O)N[C@@H](CCCN=C(N)N)C(=O)N[C@@H](Cc1c[nH]c2ccccc12)C(N)=O` [Compound 1, reference compound] displayed an activity at 0.01 µM of 94.7%. At MMP9 (isolated matrix protease MMP9, read-out: amount retained after treatment with MMP9), the remaining at 72 h was approximately 50%. Also, the t1/2 in data set [3] was found to be 6.6 h.

What is called half-life is the time in which the quantity being followed falls by half. A lower half-life goes with rapid decline. The compound `CC(C)C/C(=C\[C@@H](O)CNC(=O)[C@H](Cc1ccccc1)NC(=O)c1ccc(F)cc1)C(=O)N[C@@H](CCCNC(=N)N)C(=O)N[C@@H](Cc1c[nH]c2ccccc12)C(N)=O` [Compound 22] returned an activity at 0.01 µM on GPR54 [1] of 18.7%. In data set [2], the half-life is 2.5 days.

On to `CC(C)CC(C[C@@H](O)CNC(=O)[C@H](Cc1ccccc1)NC(=O)c1ccc(F)cc1)C(=O)N[C@@H](CCCNC(=N)N)C(=O)N[C@@H](Cc1c[nH]c2ccccc12)C(N)=O` (single isomer, unassigned) [Compound 24b], for which the “% Activity” value at GPR54 [1] is 53.9%. The compound also yielded a t1/2 in data set [2] of 54 h.

A word on the IC50: it is the concentration that gives 50% inhibition. A higher IC50 goes with weaker potency. In the case of `CC(C)C[C@H](NC(=O)CNC(=O)[C@H](Cc1ccccc1)NC(=O)[C@H](CO)NC(=O)[C@H](CC(N)=O)NC(=O)[C@H](Cc1c[nH]c2ccccc12)NC(=O)[C@H](CC(N)=O)NC(=O)[C@@H](N)Cc1ccc(O)cc1)C(=O)N[C@@H](CCCNC(=N)N)C(=O)N[C@@H](Cc1ccccc1)C(N)=O` [Kisspeptin-10, reference compound], on GPR54 [1] (EC50 of compound divided by EC50 of kisspeptin-10), the QEC is given as 1. Further, at MMP2 (isolated matrix protease MMP2, read-out: amount retained after treatment with MMP2), the remaining at 48 h was approximately 65%. The compound further had a QIC on GPR54 [4] (IC50 of compound divided by IC50 of kisspeptin-10) of 1. Further, the IC50 on GPR54 [4] ([125I]-Metastin 40-54 as labeled ligand, membrane fraction) lay in the range of 0.07 to 0.12 nM.

Compound `CC(C)C/C(=C\CCNC(=O)[C@H](Cc1ccccc1)NC(=O)c1ccc(F)cc1)C(=O)N[C@@H](CCCNC(=N)N)C(=O)N[C@@H](Cc1c[nH]c2ccccc12)C(N)=O` [Compound 21] returned an activity at 0.01 µM at GPR54 [1] of 49.3%. This compound also gave a half-life in data set [2] of 2.17 days.

Regarding `CC(C)C/C(=C\[C@H](O)CNC(=O)[C@H](Cc1ccccc1)NC(=O)c1ccc(F)cc1)C(=O)N[C@@H](CCCN=C(N)N)C(=O)N[C@@H](Cc1c[nH]c2ccccc12)C(N)=O` [Compound 23], at GPR54 [1], the activity at 0.01 µM was determined as 0.7%. Besides, in data set [2], the half-life is 45.8 days. The “retention after treatment with MMP9” value on MMP9 is listed as “retained even after 72 hr with scarce decomposition”.

`CC(C)C[C@H](CCCNC(=O)[C@H](Cc1ccccc1)NC(=O)c1ccc(F)cc1)C(=O)N[C@@H](CCCNC(=N)N)C(=O)N[C@@H](Cc1c[nH]c2ccccc12)C(N)=O` [Compound 20] had an activity at 0.01 µM at GPR54 [1] of 70.3%. The half-life in data set [2] is 1.88 days.

With `CC(C)C[C@H](/C=C/CNC(=O)[C@H](Cc1ccccc1)NC(=O)c1ccc(F)cc1)C(=O)N[C@@H](CCCN=C(N)N)C(=O)N[C@@H](Cc1c[nH]c2ccccc12)C(N)=O` [Compound 19], the activity at 0.01 µM at GPR54 [1] is 97.6%. In data set [2], the half-life was 1.58 days. Also, the “retention after treatment with MMP2” value on MMP2 is listed as “retained even after 48 hr with scarce decomposition”. In addition, the “retention after treatment with MMP9” value on MMP9 is “retained even after 72 hr with scarce decomposition”.

The values above are taken from patent US8592379B2, “Metastin derivative and use thereof” (Kyoto University, priority 2008, dated 2013).
